The compounds below were run against T1, PPARγ-RXRα heterodimer (Homo sapiens, UniProt P37231) (assay: PPARγ-RXRα heterodimer ligand activity (luciferase reporter, PPARγ:RXRα:4ERPP/CHO-K1 cells)). Settings: 48 hours, concentration for 50% of the maximum fold induction.
T1 construct: expressed in transfected cells; host or cells: CHO-K1
T1 sequence (P37231 1-477 isoform P37231-2): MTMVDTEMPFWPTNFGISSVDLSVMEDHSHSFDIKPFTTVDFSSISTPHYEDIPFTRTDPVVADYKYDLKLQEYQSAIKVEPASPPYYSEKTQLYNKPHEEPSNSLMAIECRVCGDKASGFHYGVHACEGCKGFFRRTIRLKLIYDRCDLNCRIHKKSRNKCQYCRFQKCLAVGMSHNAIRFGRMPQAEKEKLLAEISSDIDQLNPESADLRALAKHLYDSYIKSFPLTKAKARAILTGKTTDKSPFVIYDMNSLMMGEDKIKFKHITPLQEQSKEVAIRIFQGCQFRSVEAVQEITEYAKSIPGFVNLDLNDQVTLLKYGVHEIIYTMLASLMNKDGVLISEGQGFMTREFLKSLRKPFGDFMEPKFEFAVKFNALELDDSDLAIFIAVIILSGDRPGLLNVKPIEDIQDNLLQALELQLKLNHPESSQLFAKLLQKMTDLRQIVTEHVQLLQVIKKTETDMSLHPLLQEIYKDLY
T1 sequence (P19793 1-462 partner): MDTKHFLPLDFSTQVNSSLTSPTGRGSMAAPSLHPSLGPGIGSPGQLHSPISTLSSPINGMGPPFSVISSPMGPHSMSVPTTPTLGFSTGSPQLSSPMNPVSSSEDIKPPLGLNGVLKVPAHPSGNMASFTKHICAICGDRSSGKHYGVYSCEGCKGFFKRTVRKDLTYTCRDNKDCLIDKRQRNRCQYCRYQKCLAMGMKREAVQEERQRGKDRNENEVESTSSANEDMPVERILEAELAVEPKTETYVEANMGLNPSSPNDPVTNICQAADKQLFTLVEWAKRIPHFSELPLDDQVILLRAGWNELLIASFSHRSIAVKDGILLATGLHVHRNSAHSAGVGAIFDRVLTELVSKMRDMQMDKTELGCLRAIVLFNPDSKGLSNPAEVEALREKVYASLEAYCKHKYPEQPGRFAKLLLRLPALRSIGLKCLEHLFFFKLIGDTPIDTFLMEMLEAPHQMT
Type: cell-based
Description: (PPARγ-RXRα Heterodimer Ligand Activity)
A PPARγ:RXRα:4ERPP/CHO-K1 cells obtained in Reference Example 5 described later were cultured in HAM F12 medium (produced by NISSUI SEIYAKU) containing 10% Fetal bovine serum (produced by Life Technologies, Inc., USA) and then inoculated to a 96-well white plate (produced by Corning Costar Corporation, USA) at the density of 2×10^4 cells/well, and cultured in a CO2 gas incubator at 37° C. overnight.
After washing the 96 well white plate with PBS (Phosphate-buffered saline), 90 μl of HAM F12 medium containing 0.1% fatty acid-free bovine serum albumin (BSA) and 10 μl of test compound were added, which was cultured in a CO2 gas incubator at 37° C. for 48 hours. After removing the medium, 40 μl of PIKKAGENE 7.5 (produced by Wako Pure Chemical Industries, Ltd.) was added. After stirring, the luciferase activity was determined using Lumistar (produced by BMG Labtechnologies GmbH, Germany).
A fold induction was calculated based on the luciferase activity of each test compound by taking the luciferase activity in the non-treatment group as 1. The values of the test compound concentration and the fold induction were analyzed using PRISM 2.01 (produced by GraphPad Software Inc. USA) to calculate the EC50 values, the effective concentration of a test compound for 50% of the maximum fold induction.
(Introduction of Human PPARγ- and RXRα-Expressing Plasmid and Reporter Plasmid into CHO-K1 Cell and Establishment of Expressed Cell)
After a CHO-K1 cell cultured in a 750 ml tissue culture flask (produced by Corning Costar Corporation, USA) containing HAM F12 medium (produced by NISSUI SEIYAKU) supplemented with 10% Fetal Bovine Serum (produced by Life Technologies, Inc., USA) was scraped by treating with 0.5 g/L trypsin-0.2 g/L EDTA (ethylenediaminetetraacetic acid) (produced by Life Technologies, Inc., USA), the cell was washed with PBS (phosphate-buffered saline) (produced by Life Technologies, Inc., USA), centrifuged (1000 rpm, 5 minutes), and then suspended in PBS. Subsequently, a DNA was introduced into the cell under the condition shown below using GENE PULSER (produced by Bio-Rad Laboratories, USA).
Namely, to a cuvette having a 0.4 cm gap, added were 8×10^6 cells and 10 μg of plasmid pVgRXR2-hPPAR γ obtained in Reference Example 3 and 10 μg of reporter plasmid pGL3-4ERPP-TK neo obtained in Reference Example 4, which was subjected to electroporation at the voltage of 0.25 kV under the capacitance of 960 μF. Subsequently, the cell was transferred into a HAM F12 medium containing 10% Fetal Bovine Serum and cultured for 24 hours and then the cell was scraped again and centrifuged, and then suspended in HAM F12 medium containing 10% Fetal Bovine Serum supplemented with 500 μg/ml of GENETICIN (produced by Life Technologies, Inc., USA) and 250 μg/ml of ZEOCIN (produced by Invitrogen, USA) and diluted to the density of 10^4 cells/ml upon inoculation to a 96-well plate (produced by Corning Costar Corporation, USA), which was cultured in a CO2 gas incubator at 37° C., whereby obtaining a GENETICIN- and ZEOCIN-resistant transformant.
Subsequently, after the transformant cell line thus obtained was cultured in a 24-well plate (produced by Corning Costar Corporation, USA), selected was a cell line in which the luciferase was expressed and induced, i.e., PPARγ:RXRα:4ERPP/CHO-K1 cell by addition of 10 μM pioglitazone hydrochloride.

Structure (SMILES) | EC50 [nM]
Cc1oc(-c2cccs2)nc1COc1ccc(Cn2cc(CCC(=O)O)c(-c3ccccc3)c2)cc1 [Example 9, 3-[1-[4-[5-methyl-2-(2-thienyl)-4-oxazolylmethoxy]benzyl]-4-phenyl-3-pyrrolyl]propionic acid] | 1.5
O=C(O)CCc1cn(Cc2ccc(OCc3csc(-c4ccco4)n3)cc2)cc1-c1ccccc1 [Example 38, 3-[1-[4-[2-(2-furyl)-4-thiazolylmethoxy]benzyl]-4-phenyl-3-pyrrolyl]propionic acid] | 38
O=C(O)CCc1cn(Cc2ccc(OCc3cccnc3)cc2)cc1-c1ccccc1 [Example 12, 3-[4-phenyl-1-[4-(3-pyridylmethoxy)benzyl]-3-pyrrolyl]propionic acid] | 320
CCOc1nn(Cc2ccc(OCc3nc(-c4ccccc4)oc3C)nc2)cc1CC(=O)O [Example 262, 3-ethoxy-1-[6-(5-methyl-2-phenyl-4-oxazolylmethoxy)-3-pyridylmethyl]-1H-pyrazol-4-ylacetic acid] | 33
O=C(O)CCc1cn(Cc2ccc(OCc3csc(-c4cccs4)n3)cc2)cc1-c1ccccc1 [Example 40, 3-[4-phenyl-1-[4-[2-(2-thienyl)-4-thiazolylmethoxy]benzyl]-3-pyrrolyl]propionic acid] | 57
Cc1oc(-c2ccccc2)nc1COc1ccc(Cn2cc(CCC(=O)O)c(-c3ccccc3)n2)cn1 [Example 283, 3-[1-[2-(5-methyl-2-phenyl-4-oxazolylmethoxy)-5-pyridylmethyl]-3-phenyl-1H-pyrazol-4-yl]propionic acid] | 0.22
Cc1oc(-c2ccccc2)nc1COc1ccc(Cn2cc(CCC(=O)O)c(-c3ccccc3)n2)cc1 [Example 89, 3-[1-[4-(5-methyl-2-phenyl-4-oxazolylmethoxy)benzyl]-3-phenyl-1H-pyrazol-4-yl]propionic acid] | 0.23
O=C(O)CCc1cn(Cc2ccc(OCc3csc(-c4ccccc4)n3)cc2)cc1-c1ccccc1 [Example 30, 3-[4-phenyl-1-[4-(2-phenyl-4-thiazolylmethoxy)benzyl]-3-pyrrolyl]propionic acid] | 9.7
O=C(O)CCc1cn(Cc2ccc(OCc3coc(-c4ccccc4)n3)cc2)cc1-c1ccccc1 [Example 44, 3-[4-phenyl-1-[4-(2-phenyl-4-oxazolylmethoxy]benzyl]-3-pyrrolyl]propionic acid] | 13

Source: patent US7179823B1, “5-membered n-heterocyclic compounds with hypoglycemic and hypolipidemic activity” (Takeda Pharmaceutical Company Limited, priority 1999, dated 2007)
